Consider nine compounds from US8058475B2, “Substituted cyclohexylmethyl compounds” (Gruenenthal GmbH, priority 2005, dated 2011).

One data set deals with human μ-opiate receptor (Homo sapiens, UniProt P35372). The experiment in a line: Affinity for the human μ-opiate receptor ([3H]-naloxone displacement, SPA, CHO-K1 membrane preparation). Type of data set: binding. The following applies: for inhibition at 1 µM: read-out: μ-Opioid receptor, % inhibition [1 μM]; for Ki: read-out: μ-Opioid receptor, Ki.
The next data set deals with mouse. The experiment in a line: In vivo studies of analgesia: tail-flick test in the mouse. To be noted: iv, read-out: Activity % MPE; for % maximum possible antinociceptive effect at 10 mg/kg: dose 10 mg/kg (i.v.); for % maximum possible antinociceptive effect at 21.5 mg/kg: dose 21.5 mg/kg (i.v.). An excerpt:
In vivo Studies of Analgesia: Tail-flick Test in the Mouse
The mice were each placed individually into a test cage and the base of the tail was exposed to the focused heat ray of an electric lamp (tail-flick type 50/08/1.bc, Labtec, Dr. Hess). The intensity of the lamp was adjusted so that the time from switching on of the lamp to the sudden twitching away of the tail (latency of pain) in untreated mice was from 3 to 5 seconds. Before administration of the solutions comprising the compound according to the invention, or of the particular comparison solutions, the mice were pre-tested twice in the course of five minutes and the mean of these measurements was calculated as the pre-test mean.
The solutions of the compound of the general formula I according to the invention and the comparison solutions were then administered intravenously.
Pain measurement was carried out in each case 10, 20, 40 and 60 minutes following the intravenous administration. The analgesic activity was determined as the increase in the latency of pain (% of the maximum possible antinociceptive effect) according to the following formula: [(T1−T0)/(T2−T0)]×100 where time T0 is the latency before administration, time T1 is the latency after administration of the active ingredient combination and time T2 is the maximum exposure time (12 seconds).
The in-depth study of analgesic activity was carried out in the tail-flick test in the mouse, as described above.
(In general: In hot-plate and tail-flick tests a longer latency is read as antinociception.)

The target of data set [1] is T1, Noradrenaline (NA) reuptake (Rattus norvegicus, UniProt Q63380).
T1 construct: synaptosomes are freshly isolated from areas of rat brain; from tissue; host or cells: rat hypothalamus synaptosomes (P2 fraction)
The experiment in a line: Noradrenaline (NA) reuptake inhibition in rat brain synaptosomes (hypothalamus, P2 fraction). The class given is biochemical. Summed up: (§1)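 Freshly isolated rat brain synaptosomes (P2 fraction, Gray–Whittaker method) used for uptake; for NA uptake the particles came from hypothalamus of male rats.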

In another data set the target is T2, Serotonin (5HT) reuptake (Rattus norvegicus, UniProt P31652).
T2 construct: synaptosomes are freshly isolated from areas of rat brain; from tissue; host or cells: rat brain synaptosomes (P2 fraction)
The experiment in a line: Serotonin (5HT) reuptake inhibition in rat brain synaptosomes (P2 fraction). Type of data set: biochemical. To be noted: for inhibition at 10 µM: read-out: Serotonin reuptake, % inhibition [10 μM]. Summed up: as §1

Setting [2] is: 1 μM test substance, inhibition of specific [3H]-naloxone binding.
Setting [3] is: read-out: NA reuptake, % inhibition [10 μM].

Where a name gives a salt, the structure may show the parent alone. Read-outs that look alike come from different tables or passages of the source.

T2 sequence (P31652 whole entry): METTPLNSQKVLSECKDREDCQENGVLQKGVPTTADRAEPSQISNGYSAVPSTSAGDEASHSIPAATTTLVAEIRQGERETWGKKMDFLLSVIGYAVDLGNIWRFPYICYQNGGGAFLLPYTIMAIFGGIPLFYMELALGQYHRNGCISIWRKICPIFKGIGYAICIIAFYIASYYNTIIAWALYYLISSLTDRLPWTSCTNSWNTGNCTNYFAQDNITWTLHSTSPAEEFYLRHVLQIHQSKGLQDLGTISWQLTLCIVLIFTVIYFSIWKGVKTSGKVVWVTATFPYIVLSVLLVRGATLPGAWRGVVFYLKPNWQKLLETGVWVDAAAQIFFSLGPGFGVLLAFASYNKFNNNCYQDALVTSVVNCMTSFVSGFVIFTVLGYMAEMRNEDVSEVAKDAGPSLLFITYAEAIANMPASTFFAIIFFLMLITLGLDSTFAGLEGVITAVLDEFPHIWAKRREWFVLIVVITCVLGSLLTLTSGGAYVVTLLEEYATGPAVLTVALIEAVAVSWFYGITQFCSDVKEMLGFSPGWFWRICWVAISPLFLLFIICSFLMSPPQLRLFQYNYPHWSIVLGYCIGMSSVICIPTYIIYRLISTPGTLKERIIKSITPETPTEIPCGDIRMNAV
T1 sequence (Q63380 1-617): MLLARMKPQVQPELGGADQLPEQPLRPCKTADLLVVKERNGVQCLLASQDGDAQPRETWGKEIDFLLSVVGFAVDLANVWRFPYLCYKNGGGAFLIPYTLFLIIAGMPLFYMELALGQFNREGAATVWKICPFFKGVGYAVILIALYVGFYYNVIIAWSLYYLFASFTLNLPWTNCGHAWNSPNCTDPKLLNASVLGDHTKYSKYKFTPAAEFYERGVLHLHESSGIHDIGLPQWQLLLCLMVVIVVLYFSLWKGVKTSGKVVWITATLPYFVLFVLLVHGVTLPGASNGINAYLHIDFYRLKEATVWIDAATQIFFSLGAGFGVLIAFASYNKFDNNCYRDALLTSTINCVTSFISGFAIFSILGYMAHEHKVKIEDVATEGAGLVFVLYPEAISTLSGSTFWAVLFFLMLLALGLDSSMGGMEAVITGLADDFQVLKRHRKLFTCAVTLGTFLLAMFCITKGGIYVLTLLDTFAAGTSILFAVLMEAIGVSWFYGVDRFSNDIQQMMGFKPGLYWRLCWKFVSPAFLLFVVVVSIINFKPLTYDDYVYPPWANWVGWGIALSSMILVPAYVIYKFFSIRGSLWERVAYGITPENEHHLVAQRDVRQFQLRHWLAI
Chain of human μ-opiate receptor (P35372 whole entry): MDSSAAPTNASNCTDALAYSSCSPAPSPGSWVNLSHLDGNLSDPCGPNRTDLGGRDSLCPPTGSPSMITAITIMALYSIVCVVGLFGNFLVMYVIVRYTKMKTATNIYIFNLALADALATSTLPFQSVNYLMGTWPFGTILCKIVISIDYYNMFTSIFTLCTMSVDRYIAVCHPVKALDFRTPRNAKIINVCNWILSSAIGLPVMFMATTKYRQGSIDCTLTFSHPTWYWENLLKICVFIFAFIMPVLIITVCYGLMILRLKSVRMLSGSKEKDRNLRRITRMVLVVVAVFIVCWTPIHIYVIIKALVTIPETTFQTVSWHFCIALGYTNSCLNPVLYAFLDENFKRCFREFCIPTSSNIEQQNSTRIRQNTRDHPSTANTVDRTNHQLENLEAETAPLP

Regarding `CN(C)C(c1ccccc1)C1CCC(NC(=O)NC2CCCCC2)CC1` (stereo not shown) [compound 80, 1-cyclohexyl-3-(4-((dimethylamino)(phenyl)methyl)cyclohexyl)urea], the inhibition – broadly, the change of the read-out against control, counted positive when it falls – at 1 µM on human μ-opiate receptor (setting [2]) stood at 95%. The Ki (in general, the dissociation constant of the complex between target and ligand, obtained from inhibition or displacement) on human μ-opiate receptor stood at 0.02 µM; in data set [1], 0.49 µM; at Serotonin (5HT) reuptake, 0.25 µM. Besides, the % maximum possible antinociceptive effect at 10 mg/kg with mouse is 59%. The inhibition at 10 µM (in data set [1] (setting [3]); at Serotonin (5HT) reuptake) was 97% in each case.

Turning to `CC(Cc1c[nH]c2ccccc12)NC1CCC(C(c2ccccc2)N(C)C)CC1` (stereo not shown) [compound 88, N-(1-(1H-indol-3-yl)propan-2-yl)-4-((dimethylamino)(phenyl)methyl)-cyclohexanamine hydrochloride], the inhibition at 1 µM at human μ-opiate receptor (setting [2]) came out at 99%. Besides, the Ki on human μ-opiate receptor is 0.0024 µM. In addition, the % maximum possible antinociceptive effect at 21.5 mg/kg in the data set with mouse turned out to be 90%. Besides, the inhibition at 10 µM amounted to 84% in data set [1] (setting [3]) and 88% on Serotonin (5HT) reuptake.

For the compound `CN(C)C(c1ccccc1)C1CCC(NCc2ccc(F)cc2)CC1` (stereo not shown) [compound 91, 4-((dimethylamino)(phenyl)methyl)-N-(4-fluorobenzyl)cyclohexanamine hydrochloride], on human μ-opiate receptor (setting [2]), the inhibition at 1 µM was 90%. The inhibition constant (Ki) on human μ-opiate receptor came to 0.0081 µM. Besides, the % maximum possible antinociceptive effect at 21.5 mg/kg in the data set with mouse stood at 90%. Also, the inhibition at 10 µM in data set [1] (setting [3]) is 93%; on Serotonin (5HT) reuptake, 76%.

For the compound `CN(C)C(c1ccccc1)[C@H]1CC[C@H](CCc2ccccc2)CC1` (relative stereo) [compound 146, trans-N,N-dimethyl(4-phenethylcyclohexyl)(phenyl)methanamine hydrochloride], at human μ-opiate receptor (setting [2]), the inhibition at 1 µM amounted to 97%. Besides, in the data set with mouse, the % maximum possible antinociceptive effect at 10 mg/kg is 21%. The Ki in data set [1] amounted to 0.6 µM; on Serotonin (5HT) reuptake it was 0.15 µM. The inhibition at 10 µM in data set [1] (setting [3]) turned out to be 94%; on Serotonin (5HT) reuptake, 92%.

As for `CN(C)C(c1ccccc1)C1CCC(NCc2ccccc2)CC1` (stereo not shown) [compound 86, N-benzyl-4-((dimethylamino)(phenyl)methyl)cyclohexanamine hydrochloride], the inhibition at 1 µM at human μ-opiate receptor (setting [2]) was 98%. Also, the Ki on human μ-opiate receptor was 0.0038 µM. Further, in the data set on mouse, the % maximum possible antinociceptive effect at 21.5 mg/kg was determined as 100%. The inhibition at 10 µM in data set [1] (setting [3]) worked out at 95%; at Serotonin (5HT) reuptake it was 88%.

On to `CN(C)C(c1ccccc1)C1CCC(NCCCCc2ccccc2)CC1` (stereo not shown) [compound 87, 4-((dimethylamino)(phenyl)methyl)-N-(4-phenylbutyl)cyclohexanamine hydrochloride], for which, at human μ-opiate receptor (setting [2]), the inhibition at 1 µM was 85%. The Ki at human μ-opiate receptor was determined as 0.0037 µM. For the same compound, in the data set with mouse, the % maximum possible antinociceptive effect at 10 mg/kg came to 39%. Besides, the inhibition at 10 µM in data set [1] (setting [3]) worked out at 106%; on Serotonin (5HT) reuptake it was 95%.

As for `CN(C)C(c1cccs1)C1CCC(=NO)CC1` (stereo not shown), the melting point (usually the temperature of the solid-liquid transition) fell in the range of 118 to 121 °C.

`CN(C)C(c1ccccc1)C1CCC(=NO)CC1` (stereo not shown) displayed a melting point of 110 to 115 °C.

With `CC(=O)N(CCCc1ccccc1)C1CCC(C(c2ccccc2)N(C)C)CC1` (stereo not shown) [compound 95, N-(4-((dimethylamino)(phenyl)methyl)cyclohexyl)-N-(3-phenylpropyl)acetamide hydrochloride], at human μ-opiate receptor, the inhibition at 1 µM was 95% and the Ki was found to be 0.0025 µM. Further, the % maximum possible antinociceptive effect at 1 mg/kg in the data set on mouse (dose 1 mg/kg (i.v.)) is 100%. Moreover, in data set [1] (read-out: Na reuptake, % inhibition [10 μM]), the inhibition at 10 µM turned out to be 80%. For the same compound, the inhibition at 10 µM on Serotonin (5HT) reuptake was determined as 66%.
